Measurements reported in patent publication US12302928B2, “Application of acylated derivative of amino acid in preparation of animal feed additive” (ANIPHA TECHNOLOGIES PTY LTD, priority 2018, dated 2025).
Read-outs that look alike come from different tables or passages of the source.

Assays:
Assay type in all cases: in vivo
[1] = system: Duroc×Landrace×Yorkshire cross-bred bacon-type pigs; assay: Breeding test B1: effect on the production performance of pigs; details: 400 ppm in basal daily ration, 28 days; for ADFI (average daily feed intake) / ADG (average daily gain): 65-day-old pigs; for FCR (feed conversion ratio): ADFI/ADG
Source text: 270 65-day-old Duroc×Landrace×Yorkshire cross-bred bacon-type pigs with similar body weight were randomly divided into 9 groups, with 3 replications per group and 10 pigs (half of male and female) per replication. The pigpens and utensils were sterilized before the test. During the test period, the test pigs were free-stall housed in the same pigpen under the same feeding and management conditions. During the test period, the test pigs were free to drink water and eat feed, and test pigs were fed twice a day. The test groups were the control group (group I) and the test groups II˜IX, respectively. Wherein the basal daily ration was only given for the control group, and 400 ppm of different acylated derivative of the aminobutyric acid was added into the basal daily ration for the test groups II˜IX.
No other antioxidant ingredients and growth promoters were added for the test groups during the entire feeding process. The test period was 28 days, with each repetition as a unit, the test pigs were weighed at the age of 93 days without stopping water and feed for 12 hours; the average daily feed intake (ADFI, g/d*each pig), the average daily gain (ADG, g/d*each pig) and the feed conversion ratio (FCR) were calculated for each of the test groups. The formula for calculation was as follows: Average daily feed intake=(total amount of feed−remaining amount of feed)/(number of days of test×number of pigs per repetition); Average daily gain=(average body weight at the end of the test−average body weight at the beginning of the test)/number of days of test; Feed conversion ratio=average daily feed intake/average daily gain.

[2] = system: yellow-feathered broilers; assay: Breeding test B3: effect on the production performance of broilers; details: 300 ppm in basal daily ration, 20 days; for ADFI (average daily feed intake): 1-day-old broilers; for FCR (feed conversion ratio): ADFI/ADG
Source text: The test adopted a single-factor random design. 1,080 1-day-old yellow-feathered broilers with similar body weight and the average weight of 50 g were selected and randomly divided into 9 groups, with 6 replications per group and 20 yellow-feathered broilers (half of male and female) per replication. The poultry houses and utensils were sterilized before the test. During the test period, the yellow-feathered broilers were housed in the same poultry house under the same feeding and management conditions. The basal daily ration was mainly corn-soybean meal, and no other antioxidant components and growth promoters were added additionally during the entire feeding process. The test groups were the control group (group I) and the test groups II˜IX, respectively. The basal daily ration was only given for the control group, and 300 ppm of different acylated derivatives of the aminobutyric acid were added into the basal daily ration for the test groups II˜IX.
The test period was 20 days. The test broilers were free to drink water and eat feed, and were fed twice a day. With each repetition as a unit, the test broilers were weighed at the age of 21 days (stopping feed for 12 hours, without stopping water), the feed consumption of test broilers were recorded, and the average daily feed intake (ADFI, g/d*each broiler), the average daily gain (ADG, g/d*each broiler) and feed conversion ratio (FCR) were calculated for each of the test groups. The formula for calculation was as follows: Feed conversion ratio (FCR)=average daily feed intake/average daily gain.

[3] = system: Jingbai laying hens; assay: Breeding test B2: effect on the production performance of laying hens; details: 150 ppm in basal daily ration, 158 days; for EPR (egg production rate): 147-day-old laying hens
Source text: The test adopted a single-factor random design. 1,080 147-day-old Jingbai laying hens with similar body weight were selected and randomly divided into 9 groups, with 6 replications per group and 20 Jingbai laying hens per replication. The poultry houses and utensils were sterilized before the test. During the test period, the Jingbai laying hens were cage cultured in the same poultry house under the same feeding and management conditions. The basal daily ration was mainly corn-soybean meal, and no other antioxidant ingredients and growth promoters were added additionally during the entire feeding process. The test groups were the control group (group I) and the test groups II˜IX, respectively. The basal daily ration was only given for the control group, and 150 ppm of different acylated derivatives of the aminobutyric acid were added into the basal daily ration for the test groups II˜IX. The pre-feeding period was 10 days, and the test period was 158 days. The test laying hens were free to drink water and eat feed, and were fed twice a day. The test takes each repetition as a unit, and records the total egg number, the egg production, and the feed intake every day, and calculates the egg production rate (EPR), the average daily feed intake (ADFI, g/d), the egg weight (EW, g) and the feed-to-egg ratio (FER) of the laying hens during the entire test. The formula for calculation was as follows: Egg production rate (%)=average daily total egg number/number of laying hens×100; Egg weight (g)=average daily total egg weight/average daily total egg number; Feed-to-egg ratio=average daily feed intake/egg weight.

[4] = system: grass carps; assay: Breeding test B4: use in fish feed (growth of grass carps); details: for change in vivo at 150 ppm, 150 µg/mL: po, 1344 h, read-out: Weight gain rate
Description: The test fishes used were grass carps, and the test was carried out in the aquaculture farm of the test field of Guangzhou Insighter. Healthy, lively, and uniform grass carp fingerlings were fed in large cages for 4 weeks before being used for formal breeding test. The experimental system was a small floating cage. Both the small cage and the temporary cage were placed in a 3500 m^2 pond of the test field, the depth of the pond was about 1.5 m, and the water of the pond was fully aerated in the bottom of the pond. During the test, 360 grass carps that were hungry for 1 day were randomly divided into 9 groups, with 4 replications per group and 10 grass carps per replication. All of the grass carps were weighed, and then were randomly placed in 36 cages and fed with different test feeds. The test feeds were self-prepared, and 150 ppm of different acylated derivatives of the aminobutyric acid were added into the basal feed for different test groups, respectively. The test groups were the control group (group I) and the test groups IIIX, respectively. The basal daily ration was only given for the control group, and 150 ppm of different acylated derivatives of the aminobutyric acid were added into the basal daily ration for the test groups IIIX.
The test adopted time-limited artificial feeding, and the feeding amount was adjusted once a week. The feeding rate of the control group and the feeding rate of the test groups (according to the initial body weight) were exactly the same, and the grass carps were fed twice a day (7:30 and 15:00). The test period was 8 weeks.

| SMILES | ADFI (average daily feed intake) [1] [g/d * each pig] | ADG (average daily gain) [1] [g/d * each pig] | FCR (feed conversion ratio) [1] | ADG (average daily gain) [2] [g/d * each broiler] | ADFI (average daily feed intake) [2] [g/d * each broiler] | FCR (feed conversion ratio) [2] | ADFI (average daily feed intake) [3] [g/day] | EW (egg weight) [3] [g] | EPR (egg production rate) [3] [%] | (FCR) ([4]; 150 ppm in basal feed, 8 weeks) | Average final weight ([4]; 150 ppm in basal feed, 8 weeks) [g] | change in vivo at 150 ppm, 150 µg/mL ([4]; 150 ppm in basal feed, 8 weeks) [%] | change in vivo at 150 ppm, 150 µg/mL [4] [%] |
| --- | --- | --- | --- | --- | --- | --- | --- | --- | --- | --- | --- | --- | --- |
| NCCCC(=O)NCCCC(=O)O [N-(γ-aminobutyryl)-γ-aminobutyric acid] | 1831 | 693 | 2.642 | 14.62 | 28.94 | 1.98 | 160 | 55.24 | 84.4 | 1.80 | 707 | 83.7 |  |
| CC(=O)NCCCC(=O)O [N-acetyl-γ-aminobutyric acid] | 1827 | 723 | 2.665 | 15.15 | 31.06 | 2.05 | 160 | 55.24 | 82.2 | 1.81 | 733 | 77.6 |  |
| NCC(=O)NCCCC(=O)O [N-glycyl-γ-aminobutyric acid] | 1728 | 651 | 2.655 | 13.02 | 26.17 | 2.01 | 161 | 55.61 | 82.9 | 1.75 | 755 |  | 78.2 |
| Nc1ccc(C(=O)NCCCC(=O)O)cc1 [N-p-aminobenzoyl-γ-aminobutyric acid] | 1643 | 632 | 2.601 | 12.42 | 25.84 | 2.08 | 161 | 55.31 | 82.6 | 1.84 | 713 | 79.2 |  |
| O=C(O)CCCNC(=O)c1ccc(Cl)cc1 [N-p-chlorobenzoyl-γ-aminobutyric acid] | 1675 | 642 | 2.610 | 12.32 | 24.88 | 2.02 | 160 | 55.07 | 81.4 | 1.77 | 730 | 81.5 |  |
| O=C(O)CCCNC(=O)c1ccc(O)cc1 [N-p-hydroxybenzoyl-γ-aminobutyric acid] | 1602 | 611 | 2.620 | 12.32 | 24.52 | 1.99 | 161 | 55.27 | 81.8 | 1.82 | 710 | 81.5 |  |
| Cc1ccc(C(=O)NCCCC(=O)O)cc1 [N-p-methylbenzoyl-γ-aminobutyric acid] | 1769 | 672 | 2.631 | 13.84 | 27.13 | 1.96 | 159 | 54.81 | 84.4 | 1.74 | 739 | 82.1 |  |
